# Measurements as given in patent US20060069132A1, “Azolecarboxamide herbicides” (priority 2004, published 2006).
# Columns and labels:
# ducksalad = experiment: Test C flooded paddy test; type: in vivo, Heteranthera limosa; conditions: for Plant response rating, Ducksalad: 500 g ai/ha, visual rating after 12 to 14 days
# [1] = tested on: smallflower umbrella sedge; experiment: Test C flooded paddy test; type: in vivo, Cyperus difformis; conditions: for Plant response rating, Sedge, Umbrella: 500 g ai/ha, visual rating after 12 to 14 days
# johnsongrass = experiment: Test C pre-/postemergence herbicide test; type: in vivo, Sorghum halepense; conditions: for Johnsongrass plant response rating: 500 g ai/ha
# Outline: (§1)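 Seeds were planted and sprayed preemergence with test chemicals in a non-phytotoxic solvent mixture containing surfactant; postemergence treatments went onto plants 2 to 18 cm tall (1- to 4-leaf stage). After 12 to 14 days in a greenhouse, injury was rated visually against untreated controls on a 0–100 scale.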
# corn = experiment: Test C pre-/postemergence herbicide test; type: in vivo, Zea mays; conditions: for Corn plant response rating: 500 g ai/ha
# Outline: as §1
# bermudagrass = experiment: Test C pre-/postemergence herbicide test; type: in vivo, Cynodon dactylon; conditions: for Bermudagrass plant response rating: 500 g ai/ha
# Outline: as §1
# goosegrass = experiment: Test C pre-/postemergence herbicide test; type: in vivo, Eleusine indica; conditions: for Goosegrass plant response rating: 500 g ai/ha
# Outline: as §1
# morningglory = experiment: Test A pre-/postemergence herbicide test; type: in vivo, Ipomoea spp.
# Outline: (§2)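 Seeds sown in sandy loam received a preemergence directed soil spray of compound in non-phytotoxic solvent with surfactant; postemergence plants (2–10 cm, one- to two-leaf stage) were sprayed to runoff at the same time. After ~10 days in greenhouse, injury was rated visually versus untreated controls (0 = no effect, 100 = complete control).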
# rice = experiment: Test C flooded paddy test; type: in vivo, Oryza sativa; conditions: for Plant response rating, Rice: 500 g ai/ha, visual rating after 12 to 14 days
# Outline: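 Postemergence sprays applied to plants 2 to 18 cm tall (1- to 4-leaf stage); paddy species grown to 2-leaf stage under flooding. After 12 to 14 days in greenhouse, visual rating versus untreated controls on 0–100 scale (0 no effect, 100 complete control).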
# cocklebur = experiment: Test C pre-/postemergence herbicide test; type: in vivo, Xanthium strumarium; conditions: for Cocklebur plant response rating: 500 g ai/ha
# Outline: as §1
# barnyardgrass = experiment: Test A pre-/postemergence herbicide test; type: in vivo, Echinochloa crus-galli
# Outline: as §2
# velvetleaf [2] = experiment: Test C pre-/postemergence herbicide test; type: in vivo, Abutilon theophrasti; conditions: for Velvetleaf plant response rating: 500 g ai/ha
# Outline: as §1
# velvetleaf [3] = experiment: Test A pre-/postemergence herbicide test; type: in vivo, Abutilon theophrasti
# Outline: as §2
# soybean = experiment: Test C pre-/postemergence herbicide test; type: in vivo, Glycine max; conditions: for Soybean plant response rating: 500 g ai/ha
# Outline: as §1
# [4] = 62 g ai/ha, scale 0 to 100 (0 no effect, 100 complete control)
# [5] = 125 g ai/ha, scale of 0 to 100, 0 is no effect, 100 is complete control
# [6] = 250 g ai/ha, scale of 0 to 100, 0 is no effect, 100 is complete control
# [7] = scale 0 to 100 (0 no effect, 100 complete control)
# [8] = 125 g ai/ha, scale 0 (no effect) to 100 (complete control), visual, 12 to 14 days, preemergence
# [9] = Postemergence, 250 g ai/ha, scale 0 to 100, 0 no effect, 100 complete control
# [10] = Preemergence, scale 0 to 100, 0 no effect, 100 complete control
# [11] = postemergence, 125 g ai/ha, scale 0 to 100
# [12] = postemergence, 62 g ai/ha, scale 0 to 100
# [13] = 250 g ai/ha, scale 0 to 100 (0 no effect, 100 complete control), visual, 12 to 14 days, preemergence
# [14] = Postemergence, 500 g ai/ha, 0 to 100 scale, 0 no effect, 100 complete control
# [15] = Postemergence, 2000 g ai/ha, 0 to 100 scale, 0 no effect, 100 complete control
# [16] = Preemergence, 500 g ai/ha, visual rating, 0 to 100 scale (0 no effect, 100 complete control)
# [17] = Preemergence, 2000 g ai/ha, visual rating, 0 to 100 scale (0 no effect, 100 complete control)
smiles,measurement,setting,value
CCn1nc(C(C)(C)C)cc1C(=O)Nc1cccc(C(C)=NO)c1 [Compound 108],Ducksalad plant response rating,ducksalad; [4],50
same,Ducksalad plant response rating,ducksalad; [5],70
same,Ducksalad plant response rating,ducksalad; [6],80
same,"Plant response rating, Ducksalad",ducksalad; [7],90
same,"Sedge, Umbrella plant response rating",[1]; [4],60
same,"Sedge, Umbrella plant response rating",[1]; [5],80
same,"Sedge, Umbrella plant response rating",[1]; [6],80
same,"Plant response rating, Sedge, Umbrella",[1]; [7],80
same,"Plant response rating (0 = no effect, 100 = complete control), Johnsongrass","johnsongrass; 62 g ai/ha, preemergence",60
same,"Plant response rating, Johnsongrass",johnsongrass; [8],100
same,Johnsongrass plant response rating,"johnsongrass; Postemergence, scale 0 to 100",90
same,"Plant response rating, Johnsongrass",johnsongrass; [9],70
same,Johnsongrass plant response rating,johnsongrass; [10],100
same,"Plant response rating, Johnsongrass",johnsongrass; [11],50
same,"Plant response rating, Johnsongrass",johnsongrass; [12],20
same,"Plant response rating (0 = no effect, 100 = complete control), Corn","corn; 62 g ai/ha, preemergence",30
same,"Plant response rating, Corn",corn; [8],40
same,"Plant response rating, Corn",corn; [13],50
same,Corn plant response rating,"corn; Postemergence, scale 0 to 100",60
same,"Plant response rating, Corn",corn; [9],50
same,Corn plant response rating,corn; [10],50
same,"Plant response rating, Corn",corn; [11],50
same,"Plant response rating, Corn",corn; [12],50
same,"Plant response rating (0 = no effect, 100 = complete control), Bermudagrass","bermudagrass; 62 g ai/ha, preemergence",100
same,"Plant response rating, Bermudagrass",bermudagrass; [8],100
same,"Plant response rating, Bermudagrass",bermudagrass; [13],100
same,Bermudagrass plant response rating,"bermudagrass; Postemergence, scale 0 to 100",80
same,"Plant response rating, Bermudagrass",bermudagrass; [9],60
same,Bermudagrass plant response rating,bermudagrass; [10],100
same,"Plant response rating, Bermudagrass",bermudagrass; [11],30
same,"Plant response rating, Bermudagrass",bermudagrass; [12],30
same,"Plant response rating (0 = no effect, 100 = complete control), Goosegrass","goosegrass; 62 g ai/ha, preemergence",90
same,"Plant response rating, Goosegrass",goosegrass; [8],100
same,Goosegrass plant response rating,"goosegrass; Postemergence, scale 0 to 100",70
same,"Plant response rating, Goosegrass",goosegrass; [9],70
same,Goosegrass plant response rating,goosegrass; [10],100
same,"Plant response rating, Goosegrass",goosegrass; [11],40
same,"Plant response rating, Goosegrass",goosegrass; [12],20
same,Morningglory plant response rating,morningglory; [14],40
same,"Plant response rating, Morningglory",morningglory; [15],40
same,Morningglory plant response rating,morningglory; [16],30
same,Morningglory plant response rating,morningglory; [17],75
same,Rice plant response rating,rice; [4],0
same,Rice plant response rating,rice; [5],0
same,Rice plant response rating,rice; [6],20
same,"Plant response rating, Rice",rice; [7],50
same,"Plant response rating (0 = no effect, 100 = complete control), Cocklebur","cocklebur; 62 g ai/ha, preemergence",20
same,"Plant response rating, Cocklebur",cocklebur; [8],30
same,"Plant response rating, Cocklebur",cocklebur; [13],30
same,Cocklebur plant response rating,"cocklebur; Postemergence, scale 0 to 100",100
same,"Plant response rating, Cocklebur",cocklebur; [9],100
same,Cocklebur plant response rating,cocklebur; [10],50
same,"Plant response rating, Cocklebur",cocklebur; [11],80
same,"Plant response rating, Cocklebur",cocklebur; [12],70
same,Barnyardgrass plant response rating,barnyardgrass; [14],85
same,"Plant response rating, Barnyardgrass",barnyardgrass; [15],100
same,Barnyardgrass plant response rating,barnyardgrass; [16],85
same,Barnyardgrass plant response rating,barnyardgrass; [17],90
same,"Plant response rating, Velvetleaf",velvetleaf [2]; [8],90
same,Velvetleaf plant response rating,"velvetleaf [2]; Postemergence, scale 0 to 100",90
same,"Plant response rating, Velvetleaf",velvetleaf [2]; [9],80
same,Velvetleaf plant response rating,velvetleaf [2]; [10],100
same,"Plant response rating, Velvetleaf",velvetleaf [2]; [11],60
same,"Plant response rating, Velvetleaf",velvetleaf [2]; [12],40
same,Velvetleaf plant response rating,velvetleaf [3]; [14],90
same,"Plant response rating, Velvetleaf",velvetleaf [3]; [15],100
same,Velvetleaf plant response rating,velvetleaf [3]; [16],55
same,Velvetleaf plant response rating,velvetleaf [3]; [17],90
same,"Plant response rating, Soybean",soybean; [8],0
same,Soybean plant response rating,"soybean; Postemergence, scale 0 to 100",60
same,"Plant response rating, Soybean",soybean; [9],60
same,Soybean plant response rating,soybean; [10],10
same,"Plant response rating, Soybean",soybean; [11],60
same,"Plant response rating, Soybean",soybean; [12],50
CC(=NO)c1cccc(NC(=O)c2cc(C(C)(C)C)nn2C)c1 [Compound 102],Ducksalad plant response rating,ducksalad; [4],20
same,Ducksalad plant response rating,ducksalad; [5],80
same,Ducksalad plant response rating,ducksalad; [6],90
same,"Plant response rating, Ducksalad",ducksalad; [7],90
same,"Sedge, Umbrella plant response rating",[1]; [4],50
same,"Sedge, Umbrella plant response rating",[1]; [5],70
same,"Sedge, Umbrella plant response rating",[1]; [6],70
same,"Plant response rating, Sedge, Umbrella",[1]; [7],80
same,"Plant response rating (0 = no effect, 100 = complete control), Johnsongrass","johnsongrass; 62 g ai/ha, preemergence",50
same,"Plant response rating, Johnsongrass",johnsongrass; [8],80
same,Johnsongrass plant response rating,johnsongrass; [10],100
same,"Plant response rating (0 = no effect, 100 = complete control), Corn","corn; 62 g ai/ha, preemergence",0
same,"Plant response rating, Corn",corn; [8],0
same,"Plant response rating, Corn",corn; [13],10
same,Corn plant response rating,corn; [10],30
same,"Plant response rating (0 = no effect, 100 = complete control), Bermudagrass","bermudagrass; 62 g ai/ha, preemergence",100
same,"Plant response rating, Bermudagrass",bermudagrass; [8],100
same,"Plant response rating, Bermudagrass",bermudagrass; [13],100
same,Bermudagrass plant response rating,bermudagrass; [10],100
same,"Plant response rating (0 = no effect, 100 = complete control), Goosegrass","goosegrass; 62 g ai/ha, preemergence",90
same,"Plant response rating, Goosegrass",goosegrass; [8],100
same,Goosegrass plant response rating,goosegrass; [10],100
same,Morningglory plant response rating,morningglory; [14],35
same,"Plant response rating, Morningglory",morningglory; [15],55
same,Morningglory plant response rating,morningglory; [16],65
same,Morningglory plant response rating,morningglory; [17],90
same,Rice plant response rating,rice; [4],20
same,Rice plant response rating,rice; [5],30
same,Rice plant response rating,rice; [6],40
same,"Plant response rating, Rice",rice; [7],60
same,"Plant response rating (0 = no effect, 100 = complete control), Cocklebur","cocklebur; 62 g ai/ha, preemergence",10
same,"Plant response rating, Cocklebur",cocklebur; [8],20
same,"Plant response rating, Cocklebur",cocklebur; [13],20
same,Cocklebur plant response rating,cocklebur; [10],70
same,Barnyardgrass plant response rating,barnyardgrass; [14],55
same,"Plant response rating, Barnyardgrass",barnyardgrass; [15],75
same,Barnyardgrass plant response rating,barnyardgrass; [16],70
same,Barnyardgrass plant response rating,barnyardgrass; [17],85
same,"Plant response rating, Velvetleaf",velvetleaf [2]; [8],20
same,Velvetleaf plant response rating,velvetleaf [2]; [10],60
same,Velvetleaf plant response rating,velvetleaf [3]; [14],10
same,"Plant response rating, Velvetleaf",velvetleaf [3]; [15],20
same,Velvetleaf plant response rating,velvetleaf [3]; [16],30
same,Velvetleaf plant response rating,velvetleaf [3]; [17],60
same,"Plant response rating (0 = no effect, 100 = complete control), Soybean","soybean; 62 g ai/ha, preemergence",0
same,"Plant response rating, Soybean",soybean; [8],0
same,Soybean plant response rating,soybean; [10],20
